# According to patent US20010011075A1, “5'-SUBSTITUTED-RIBOFURANOSYL BENZIMIDAZOLES AS ANTIVIRAL AGENTS” (priority 1999, published 2001):
# Read-outs that look alike come from different tables or passages of the source.
# Key:
# [1] = Visual cytotoxicity in stationary HFF cells at time of plaque enumeration; format: cell-based, human; details: human, stationary human foreskin fibroblasts (HFF cells); visual cytotoxicity on HFF cells at time of HCMV plaque enumeration; read-out: 50% Inhibitory Concentration, Cytotoxicity (HFF)
# Experimental: (§1) KB cells (available from the American Type Culture Collection (ATCC) 12301 Parklawn Drive, […], Md. 20852 (ATCC CCL 17)), an established human cell line derived from an epidermal oral carcinoma, were grown in minimal essential medium (MEM) (Sigma) with Hanks salts (MEM(H)) supplemented with 5% fetal calf serum. Human foreskin fibroblasts (HFF cells) (provided by the University of Michigan Hospital) and African green monkey kidney cells (BSC-1) (ATTC CCL 26) cells were grown in MEM with Earl salts (MEM(E)) supplemented with 10% fetal bovine serum. Cells were passaged according to conventional procedures and as described in Shipman, C., Jr. et al. (1976) Antimicrob. Agents Chemother. Vol. 9:120 and incorporated herein by reference. Briefly, cells were passaged at 1:2 to 1:10 dilutions according to conventional procedures by using 0.05% trypsin plus 0.02% EDTA in a HEPES buffered salt solution. HFF cells were passaged only at 1:2 dilutions.
# (§2) Two different methods were used to evaluate cytotoxicity of the compounds. First, cytotoxicity produced in stationary HFF cells was determined by microscopical examination of cells not affected by the virus used in the plaque assay. Second the effect of compounds on KB cells during two population doubling times was determined by crystal violet staining and spectrophotometric quantitation of dye eluted from stained cells. This method has been utilized for the analysis of ganciclovir and zidovudine (See Prichard, M. N. et al. Antiviral Res. (1991) Vol. 35:1060-1065).
# (§3) (3) Visual cytotoxicity was scored on HFF cells at the time of HCMV plaque enumeration. Inhibition of KB cell growth was determined as described in the experimental. 3L was used as a positive control for the KB cytotoxicity assay.
# HCMV [2] = assay: HCMV plaque (focus) reduction assay in HFF cells; format: cell-based, HCMV (Towne strain); details: for IC50: HCMV plaque assay, HFF cells, averages from two or more experiments, read-out: 50% Inhibitory Concentration, Antiviral Activity (plaque)
# Experimental: (§4) A plaque purified isolate, Po, of the Towne strain of HCMV was used in all experiments and was a gift of Dr. Mark Stinski, University of Iowa. The KOS strain of HSV-1 was used and was provided by Dr. Sandra K. Weller, University of Connecticut. Stock preparations of HCMV and HSV-1 were prepared and titered as known to those of skill and the art and described in Turk, S. R. et al. (1987) Antimicrob. Agents Chemother. Vol. 31:544-550 and Shipman, C., Jr., et al. (1990) J. Virol. Methods Vol. 28:101-106, each incorporated herein by reference.
# (§5) HCMV plaque reduction experiments were performed with monolayer cultures of HFF cells by a procedure similar to that referenced above for titration of the viruses and described in Devivar, R. V. et al. (1994) J. Med. Chem. Vol. 37:2942-2949. Activity of compounds against HSV-1 was evaluated using an ELISA assay.
# The effect of compounds of the replication of HCMV was measured using a plaque (focus) reduction assay. For the former, HFF cells in 24-well culture dishes were infected with approximately 50 p.f.u. of HCMV per well using the procedures detailed above. Compounds dissolved in growth medium were added in four to six selected concentrations to duplicate wells following virus adsorption. Following incubation at 37° C. for 7 to 10 days, cell sheets were fixed, stained and microscopic plaques were enumerated as described above. Drug effects were calculated as a percentage of reduction in number of plaques in the presence of each drug concentration compared to the number observed in the absence of drug. DHPG (ganciclovir) was used as a positive control in all experiments.
# (§6) Dose-response relationships can be used to compare drug effects. These are constructed by linearly regressing the percent inhibition of parameters derived in the preceding sections against log drug concentrations. The 50 inhibitory (I50) concentrations were calculated from the regression lines using the methods described by Goldstein. See Goldstein, A., Biostatistics: An Introductory Text, MacMillan, New York, pp. 156-161 (1964), incorporated herein by reference.
# (§7) (2) A plaque assay was used to quantitate anti HCMV activity, an ELISA assay was used to quantitate activity against HSV-1. DHPG (ganciclovir) was used as a positive control for the HCMV assay.
# [3] = Inhibition of KB cell growth (crystal violet staining); format: cell-based, human; details: human, KB cells (human epidermal oral carcinoma line); inhibition of KB cell growth; read-out: 50% Inhibitory Concentration, Cytotoxicity (KB)
# Experimental: as §1, §2, §3
# HSV-1 = HSV-1 ELISA assay; format: cell-based, HSV-1 (KOS strain); details: read-out: 50% Inhibitory Concentration, Antiviral Activity (ELISA)
# Experimental: as §4, §5
# ELISA techniques according to standard procedures were also used to determine activity against HSV-1. Drug effects were calculated as a percentage of the reduction in virus titers in the presence of each drug concentration compared to the titer obtained in the absence of drug. Ganciclovir was used as a positive control in all experiments.
# as §6, §7
# L1210 cells = assay: Antiproliferative activity: growth of L1210 cells; format: cell-based, mouse; details: concentration required to decrease final growth rate of L1210 cells to half of control rate, read-out: 50% Inhibitory Concentration, Antiproliferative Activity
# Experimental: Antiproliferative activity was evaluated by measuring the effect of the compounds on the growth of L1210 cells, a mouse leukemia cell line which is generally available and can be obtained from Cancer Chemotherapy Center, Japanese Foundation for Cancer Research. Antiproliferative activity was measured using conventional procedures and as described in Wotring, L. L. and Townsend, L. B., (1979) Cancer Res. Vol. 39:3018-3023 and Cory, A. H. et al. (1991) Cancer Comm. Vol. 3:207-212, each incorporated herein by reference.
# (8) The concentration required to decrease the final growth rate of L1210 cells to half of the control rate. All values are averages from two or more experiments.
# HFF cells = assay: Visual cytotoxicity in stationary HFF cells at time of plaque enumeration; format: cell-based, human; details: visual cytotoxicity on HFF cells at time of HCMV plaque enumeration; read-out: 50% Inhibitory Concentration, Cytotoxicity (HFF)
# Experimental: as §1, §2, §3
# HCMV [4] = details: background statement; times more active than TCRB; cited from earlier work
# KB cells = assay: Inhibition of KB cell growth (crystal violet staining); format: cell-based, human; details: inhibition of KB cell growth; read-out: 50% Inhibitory Concentration, Cytotoxicity (KB)
# Experimental: as §1, §2, §3
# [5] = Human alphaherpesvirus 1, averages from two or more experiments
# [6] = averages from two or more experiments
Structure (SMILES),IC50 [1],"IC50 (HCMV [2]; Human betaherpesvirus 5, HFF)",anti-HCMV activity (in words) (HCMV [2]; Table 1),IC50 at 2 population doubling times [3],melting point,IC50 (HSV-1; [5]),IC50 (L1210 cells; Mus musculus),IC50 (HFF cells),activity relative to TCRB (HCMV [4]),IC50 (HCMV [2]),IC50 (KB cells),IC50 (HSV-1; [6]),IC50 (L1210 cells)
"CCCCCCOC[C@H]1O[C@@H](n2c(Cl)nc3cc(Cl)c(Cl)cc32)[C@H](OC(C)=O)[C@@H]1OC(C)=O [Compound 7d, 2,5,6-trichloro-1-(2′,3′-di-O-acetyl-5′-O-hexyl-β-D-ribofuranosyl)benzimidazole]",32 µM,8 µM,decreased activity over the butyl compound (7c),60 µM,98 to 100 °C,> 100 µM,,,,,,,
"CCOC[C@H]1O[C@@H](n2c(Cl)nc3cc(Cl)c(Cl)cc32)[C@H](OC(C)=O)[C@@H]1OC(C)=O [Compound 7b, 2,5,6-trichloro-1-(2′,3′-di-O-acetyl-5′-O-ethyl-β-D-ribofuranosyl)benzimidazole]",33 µM,4.3 µM,,60 µM,125 to 126 °C,> 100 µM,,,,,,,
"CCOC[C@H]1O[C@@H](n2c(Cl)nc3cc(Cl)c(Cl)cc32)[C@H](O)[C@@H]1O [Compound 8b, 2,5,6-trichloro-1-(5′-O-ethyl-β-D-ribofuranosyl)benzimidazole]",26 µM,4.6 µM,,80 µM,88 to 90 °C,> 100 µM,59 µM,,,,,,
"COC[C@H]1O[C@@H](n2c(Cl)nc3cc(Cl)c(Cl)cc32)[C@H](OC(C)=O)[C@@H]1OC(C)=O [Compound 7a, 2,5,6-trichloro-1-(2′,3′-di-O-acetyl-5′-O-methyl-β-D-ribofuranosyl)benzimidazole]",26 µM,2.8 µM,,80 µM,150 to 151 °C,> 100 µM,,,,,,,
"C[C@H]1O[C@@H](n2c(Cl)nc3cc(Cl)c(Cl)cc32)[C@H](O)[C@@H]1O [Compound 2, 2,5,6-trichloro-1-(5′-deoxy-β-D-ribofuranosyl)benzimidazole, reference compound]",,,,,,,,77 µM,about 10 times,0.36 µM,150 µM,> 100 µM,
"COC[C@H]1O[C@@H](n2c(Cl)nc3cc(Cl)c(Cl)cc32)[C@H](O)[C@@H]1O [Compound 8a, 2,5,6-trichloro-1-(5′-O-methyl-β-D-ribofuranosyl)benzimidazole]",26 µM,3 µM,,90 µM,104 to 105 °C,> 100 µM,60 µM,,,,,,
"CCCCOC[C@H]1O[C@@H](n2c(Cl)nc3cc(Cl)c(Cl)cc32)[C@H](OC(C)=O)[C@@H]1OC(C)=O [Compound 7c, 2,5,6-trichloro-1-(2′,3′-di-O-acetyl-5′-O-butyl-β-D-ribofuranosyl)benzimidazole]",66 µM,21 µM,,> 100 µM,143 to 144 °C,> 100 µM,,,,,,,
"[N-]=[N+]=NC[C@H]1O[C@@H](n2c(Cl)nc3cc(Cl)c(Cl)cc32)[C@H](O)[C@@H]1O [Compound 17a, 2,5,6-trichloro-1-(5′-deoxy-5′-azido-β-D-ribofuranosyl)benzimidazole]",,,,,,,,32 µM,,1.5 µM,70 µM,> 100 µM,80 µM
"CCCCOC[C@H]1O[C@@H](n2c(Cl)nc3cc(Cl)c(Cl)cc32)[C@H](O)[C@@H]1O [Compound 8c, 2,5,6-trichloro-1-(5′-O-butyl-β-D-ribofuranosyl)benzimidazole]",32 µM,14.2 µM,,60 µM,70 to 72 °C,> 100 µM,> 100 µM,,,,,,
